The source of these data is patent US8809377B2, “Deubiquitinase inhibitors and methods for use of the same” (The Regents of the University of Michigan, priority 2010, dated 2014).

Common to all, as to type: cell-based
The target of one assay is T1, USP5 (Homo sapiens, UniProt P45974).
T1 construct: endogenous in cells; host or cells: Z138
T1 sequence (P45974 1-858): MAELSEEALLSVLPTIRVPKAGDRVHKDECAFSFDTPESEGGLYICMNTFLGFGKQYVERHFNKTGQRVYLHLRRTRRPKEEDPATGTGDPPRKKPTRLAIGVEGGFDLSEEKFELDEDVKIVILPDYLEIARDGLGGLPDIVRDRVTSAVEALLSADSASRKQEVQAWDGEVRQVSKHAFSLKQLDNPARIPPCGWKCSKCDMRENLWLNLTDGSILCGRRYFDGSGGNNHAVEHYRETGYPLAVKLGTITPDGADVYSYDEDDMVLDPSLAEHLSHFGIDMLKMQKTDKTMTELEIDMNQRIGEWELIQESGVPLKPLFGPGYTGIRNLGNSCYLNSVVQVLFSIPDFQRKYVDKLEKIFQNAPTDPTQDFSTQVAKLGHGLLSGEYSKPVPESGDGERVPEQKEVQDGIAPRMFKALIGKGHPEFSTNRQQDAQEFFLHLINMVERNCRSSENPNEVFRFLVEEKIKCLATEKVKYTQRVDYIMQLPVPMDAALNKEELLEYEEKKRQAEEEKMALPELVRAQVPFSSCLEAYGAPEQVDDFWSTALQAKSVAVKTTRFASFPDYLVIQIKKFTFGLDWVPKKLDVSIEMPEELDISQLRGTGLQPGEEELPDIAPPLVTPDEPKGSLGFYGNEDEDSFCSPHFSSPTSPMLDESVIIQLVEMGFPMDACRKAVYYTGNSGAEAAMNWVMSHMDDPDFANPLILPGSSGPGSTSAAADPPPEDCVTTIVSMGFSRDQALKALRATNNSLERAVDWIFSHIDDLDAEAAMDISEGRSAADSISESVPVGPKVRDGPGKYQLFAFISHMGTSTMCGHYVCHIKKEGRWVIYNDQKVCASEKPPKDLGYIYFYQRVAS
As to the kind of experiment: HA-UbVs labeling of USP5. On the procedure:
To assay for changes in activity of cellular deubiquitinase enzymes, Z138 and HEK293 cells were lysed in DUB buffer (50 mM Tris pH 7.4, 5 mM MgCl2, 150 mM NaCl) for 10 min at 4° C. The lysates were centrifuged at 20,000 RFC for 10 min and the supernatant was used for DUB labeling. Equal amounts of lysate were incubated with 500 ng of HA-UbVs for 1 hr at room temperature, followed by boiling in reducing sample buffer and resolving by SDS-PAGE. After protein transfer to nitrocellulose membranes, HA immunoblotting was used to detect DUB labeling.
Hemagglutinin-tagged ubiquitin vinyl methyl sulfone (HA-UbVs) acts as a DUB suicide substrate, forming a covalent adduct with active DUB enzymes. Specific cellular DUBs can be identified by anti-HA blotting, as previously shown in various cell types. Changes in specific DUB activities are measurable by monitoring HA-labeling in lysates from control and treated cells. […]
USP9x was immunoprecipitated from Z138 cell lysates, prepared in DUB buffer and the beads were incubated with vehicle alone or WP1130 for 30 min. Ub-AMC (500 nM) was added to each reaction and fluorescence was monitored every minute for up to 30 minutes. The maximum fluorescence observed at the end of the linear phase of substrate cleavage in control and WP1130 treated DUBs was used as a gauge to estimate DUB activity and % inhibition. […]

The next assay relates to cellular DUB activity. Description: DUB activity of lysates from treated cells (Ub-AMC, Ub chain disassembly). On the procedure: Cells were lysed in ice cold DUB buffer containing 50 mM Tris-HCl, pH 7.5, 0.5% NP-40, 5 mM MgCl2, 150 mM NaCl and 1 mM phenylmethylsulfonylfluoride. Briefly, 5 μg of clarified lysate from untreated or treated cells was incubated with 500 nM Ub-AMC in a 100 μL reaction volume at 37° C. and the release of AMC fluorescence was recorded at ex/em 380/480 using a spectrofluorometer. USP9x was immunoprecipitated from 500 μg of cell lysate and incubated in DUB buffer containing NEM, WP1130 or DMSO in a 100 μL reaction volume for 30 min. The reaction was initiated by the addition of 500 nM Ub-AMC and the release of AMC-fluorescence was recorded.
In vitro disassembly of purified polyubiquitin chains (K-48/K-63 linked) was performed as previously described. Five μg of lysate from untreated or WP1130 treated cells were prepared in DUB buffer and incubated with K48- or K-63 linked chains (1 μg) for 10 min at 37° C. The extent of chain disassembly was assessed by ubiquitin immunoblotting.
Inhibition of cellular deubiquitinases could lead to an increase in high molecular weight ubiquitinated proteins in the absence of proteasome inhibition. […] To directly assess the impact of WP1130 on DUB activity in treated cells, cell lysates from control and treated cells were incubated with ubiquitin-AMC and fluorescence generated as a consequence of substrate cleavage was measured as an indicator of DUB activity.
The effect of WP1130 treatment on in vitro deubiquitination/disassembly of purified K48-linked or K63-linked polyubiquitin chains was evaluated. Lysates from WP1130 treated (2 hr) or untreated cells were incubated with 1 μg of unanchored polyubiquitin chains for 5, 10 and 15 min at 37° C.

The target of a further assay is T2, 20S proteasome (Homo sapiens, UniProt P28074).
T2 construct: endogenous in cells; host or cells: K562 and other CML lines, Z138
T2 sequence (P28074 60-263): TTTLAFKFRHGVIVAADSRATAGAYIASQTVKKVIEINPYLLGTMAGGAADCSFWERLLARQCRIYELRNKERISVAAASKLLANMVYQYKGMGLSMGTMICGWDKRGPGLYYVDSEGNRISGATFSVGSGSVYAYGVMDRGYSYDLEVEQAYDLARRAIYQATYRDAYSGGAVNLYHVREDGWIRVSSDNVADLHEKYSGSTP
As to the kind of experiment: Proteasome activity assay in treated cells (Suc-LLVY-AMC). The conditions noted are these: 5 μM, 2 hr. On the procedure: Fluorogenic substrate Suc-LLVY-AMC was used to assay for the chymotryptic-like activity of the 20S proteasome. To assay for in vivo proteasome inhibition cells were treated with WP1130 (5 μM) or MG132 (5 μM) for 2 hours and lysed in ice-cold lysis buffer (50 mM HEPES, pH 7.5, 5 mM EDTA, 150 mM NaCl, 1% Triton X-100). Lysates were clarified by centrifugation at 20,000 RCF for 10 min and equal amounts of protein from each sample were incubated at 37° C. with 100 μM fluorogenic substrate. To assay for direct inhibition of the 20S proteasome in vitro, purified 20S human proteasome (200 ng) was incubated with WP1130 (5 μM), MG132 (5 μM) or Lactacystin (5 μM) for 30 min at 37° C. before addition of the substrates. Fluorescence intensity was measured using a spectrophotometer at excitation 360 nm & emission 460 nm. Assays were performed in triplicate, and statistical significance was determined with a paired Student's t test.

“Also recorded” adds a separate entry of the source.

On to `CCC[C@H](NC(=O)/C(C#N)=C/c1cccc(Br)n1)c1ccccc1` [WP1130], for which, at USP5 (HA-UbVs labeling upon incubation with compound), the “reduction in HA labeling of USP5” value is “about 80%”. Besides, the “HA-UbVS labeling of USPS” value at USP5 (Z138 cells, 1, 5 or 10 μM, 1 hour) is “dose-dependent and time reduction in the labeling”. In addition, in the assay with cellular DUB activity (CML cells, WP1130 1-8 hours), the “Ub-AMC hydrolyzing activity of lysates from treated cells” value is listed as “limited effects”. Further, the “reduction of DUB activity (ubiquitin-AMC)” value with cellular DUB activity (Z138 cells, 5 μM WP1130 or 50 nM bortezomib, by 4 hours) was approximately 50%. The “disassembly of K48-/K63-linked polyubiquitin chains by lysates” value in the assay on cellular DUB activity (lysates from cells treated 2 hr) is “limited disassembly”. Moreover, at 20S proteasome, the “20S proteasome chymotryptic-like activity in intact cells (in vivo)” value is “did not suppress; also recorded: no significant decline”.
